Assay results taken from the supplement of paper PMC13380429.

Columns and labels:
Conditions in all cases: 72 h
U2OS [1] = assay: drug sensitivity score (DSS) for viability; higher = more toxic; extreme values may be limits of the assay
Calu-3 [2] = assay: as above
Caco-2 [3] = assay: as above
U2OS [4] = assay: relative viability EC50 (midpoint between 100% and the lowest measured viability); higher = less toxic
Calu-3 [5] = assay: as above
Caco-2 [6] = assay: as above
U2OS [7] = assay: cell viability relative to DMSO; higher = less toxic
Calu-3 [8] = assay: as above
Caco-2 [9] = assay: as above
HepG2 [10] = assay: drug sensitivity score (DSS) for viability; higher = more toxic; extreme values may be limits of the assay
HepG2 [11] = assay: relative viability EC50 (midpoint between 100% and the lowest measured viability); higher = less toxic
HepG2 [12] = assay: cell viability relative to DMSO; higher = less toxic
Vero E6 [13] = assay: drug sensitivity score (DSS) for viability; higher = more toxic; extreme values may be limits of the assay
Vero E6 [14] = assay: relative viability EC50 (midpoint between 100% and the lowest measured viability); higher = less toxic
Vero E6 [15] = assay: cell viability relative to DMSO; higher = less toxic

Row | Compound | drug sensitivity score (U2OS [1]) | drug sensitivity score (Calu-3 [2]) | drug sensitivity score (Caco-2 [3]) | relative viability EC50 (U2OS [4]) | relative viability EC50 (Calu-3 [5]) | relative viability EC50 (Caco-2 [6]) | cell viability (U2OS [7]; 1 nM) | cell viability (U2OS [7]; 10 nM) | cell viability (U2OS [7]; 100 nM) | cell viability (U2OS [7]; 1000 nM) | cell viability (U2OS [7]; 10000 nM) | cell viability (Calu-3 [8]; 1 nM) | cell viability (Calu-3 [8]; 10 nM) | cell viability (Calu-3 [8]; 100 nM) | cell viability (Calu-3 [8]; 1000 nM) | cell viability (Calu-3 [8]; 10000 nM) | cell viability (Caco-2 [9]; 1 nM) | cell viability (Caco-2 [9]; 10 nM) | cell viability (Caco-2 [9]; 100 nM) | cell viability (Caco-2 [9]; 1000 nM) | cell viability (Caco-2 [9]; 10000 nM) | drug sensitivity score (HepG2 [10]) | relative viability EC50 (HepG2 [11]) | cell viability (HepG2 [12]; 1 nM) | cell viability (HepG2 [12]; 10 nM) | cell viability (HepG2 [12]; 100 nM) | cell viability (HepG2 [12]; 1000 nM) | cell viability (HepG2 [12]; 10000 nM) | drug sensitivity score (Vero E6 [13]) | relative viability EC50 (Vero E6 [14]) | cell viability (Vero E6 [15]; 1 nM) | cell viability (Vero E6 [15]; 10 nM) | cell viability (Vero E6 [15]; 100 nM) | cell viability (Vero E6 [15]; 1000 nM) | cell viability (Vero E6 [15]; 10000 nM)
1 | C/C(=C\C(N)C(=O)O)CP(=O)(O)O (stereo unspecified) | 0 | 0 | 0 | > 10 µM | > 10 µM | > 10 µM | 101% | 96.3% | 97% | 97.1% | 104% | 95.9% | 98.3% | 104% | 96.2% | 101% | 102% | 110% | 97.5% | 90% | 101% |  |  |  |  |  |  |  |  |  |  |  |  |  | 
2 | CS(=O)(=O)Nc1ccc(-c2coc3cc(OCc4cccc(C(=O)O)c4)ccc3c2=O)cc1 | 0 | 0 | 0 | > 10 µM | > 10 µM | > 10 µM | 97.8% | 99.1% | 107% | 105% | 103% | 108% | 90.4% | 96.2% | 101% | 103% | 94.9% | 97.6% | 97.7% | 97.1% | 101% | 0 | > 10 µM | 92.6% | 107% | 101% | 109% | 93.2% |  |  |  |  |  |  | 
3 | CS(=O)(=O)c1cccc(CNc2nc(Nc3ccc4c(c3)CCC(=O)N4)ncc2C(F)(F)F)c1 | 4.2 | 0.5 | 0.3 | 2.04 µM | > 10 µM | > 10 µM | 98.3% | 97.6% | 93.7% | 92.4% | 46% | 108% | 99.5% | 101% | 88.2% | 88.5% | 94.6% | 101% | 95.3% | 96.6% | 85.5% | 3.5 |  | 104% | 111% | 94.4% | 94.9% | 50.2% | 1.8 | > 10 µM | 103% | 96.9% | 99.1% | 87% | 78.8%
4 | Cc1ccc2c(N3CCN(CCc4cccc(N5CCNC5=O)c4)CC3)cccc2n1 | 0 | 0 | 0 | > 10 µM | > 10 µM | > 10 µM | 101% | 101% | 101% | 95.5% | 97.7% | 93.6% | 94.8% | 108% | 99.2% | 97.6% | 104% | 98% | 93.9% | 101% | 96% | 1.7 |  | 96.1% | 98.6% | 89.2% | 92.8% | 73.5% | 0 | > 10 µM | 99.8% | 100% | 98.3% | 103% | 96.3%
5 | O=C(Nc1cccnc1)c1cc(-c2ccnc(F)c2)ccc1OCc1ccccc1 | 0 | 0 | 0.4 | > 10 µM | > 10 µM | > 10 µM | 95.6% | 100% | 95.1% | 96.3% | 97.3% | 94.2% | 102% | 96.5% | 102% | 104% | 107% | 110% | 94.8% | 92% | 86.6% |  |  |  |  |  |  |  | 0 | > 10 µM | 99.3% | 101% | 97.8% | 98% | 95.2%
6 | O=C1Nc2ccccc2C2(CCN(CCc3ccc(C(F)(F)F)cc3)CC2)O1 | 0 | 0.2 | 0.8 | > 10 µM | > 10 µM | > 10 µM | 100% | 94.9% | 99.8% | 94.7% | 91.2% | 99.7% | 98.7% | 102% | 108% | 82.4% | 93.3% | 97.2% | 94.7% | 99.2% | 78.6% | 2.1 |  | 97.7% | 96.2% | 88.8% | 100% | 58.1% | 0 | > 10 µM | 95.6% | 99% | 97.2% | 96.3% | 93.5%
7 | Cc1nc[nH]c1CCN [4-methylhistamine] | 0 | 0 | 0 | > 10 µM | > 10 µM | > 10 µM | 95.1% | 99.5% | 104% | 98% | 104% | 89.5% | 101% | 107% | 88% | 99.2% | 91.9% | 95.1% | 99.2% | 100% | 101% | 0 | > 10 µM | 98.1% | 98.6% | 88.5% | 96.2% | 91.9% |  |  |  |  |  |  | 
8 | Cc1ccc2c(=O)c3cccc(CC(=O)O)c3oc2c1C [ASA-404] | 0 | 0 | 0 | > 10 µM | > 10 µM | > 10 µM | 100% | 97.4% | 101% | 99.7% | 103% | 98% | 86.7% | 105% | 99.4% | 102% | 94.6% | 98.6% | 99% | 96% | 93.3% |  |  |  |  |  |  |  | 0 | > 10 µM | 102% | 106% | 102% | 108% | 97.6%
9 | Nc1nc(-c2nn(Cc3ccccc3F)c3ncccc23)ncc1C1CC1 [BAY-41-2272] | 0 | 0 | 0 | > 10 µM | > 10 µM | > 10 µM | 90% | 96.6% | 93.9% | 101% | 105% | 100% | 108% | 91.7% | 104% | 110% | 86.5% | 90.5% | 94.1% | 100% | 93.8% | 1.1 |  | 95.8% | 103% | 95.8% | 104% | 69.2% | 2.9 |  | 102% | 96.1% | 97.3% | 86% | 66.7%
10 | N#C/C(=C\c1ccc(O)cc1)C(=O)O [CHC] | 0 |  | 0 | > 10 µM |  | > 10 µM | 101% | 93.4% | 97.6% | 98.6% | 99.7% |  |  |  |  |  | 108% | 98.5% | 102% | 87.6% | 102% | 0 | > 10 µM | 106% | 99% | 102% | 98% | 98.8% |  |  |  |  |  |  | 
11 | Fc1cccc(/C=N/N=C/c2cccc(F)c2)c1 [DFB] |  | 0 | 0 |  | > 10 µM | > 10 µM |  |  |  |  |  | 115% | 111% | 98.8% | 105% | 104% | 99.5% | 110% | 100% | 102% | 101% |  |  |  |  |  |  |  | 0 | > 10 µM | 99.9% | 98.7% | 90% | 97.3% | 98.6%
12 | COc1ccc2c(c1)/C(=C/c1cnc[nH]1)C(=O)N2 [SU9516] | 0.2 | 0 | 0 | > 10 µM | > 10 µM | > 10 µM | 101% | 103% | 101% | 106% | 83.7% | 99.9% | 109% | 112% | 122% | 134% | 101% | 96% | 95.3% | 105% | 96.8% | 3.5 |  | 105% | 105% | 97.7% | 90.8% | 59.3% | 0.5 | > 10 µM | 97.4% | 99.4% | 95.3% | 104% | 79%
13 | Nc1sc2c(c1C(=O)c1ccc(Cl)cc1)CCCC2 [T-62] | 0 |  | 0 | > 10 µM |  | > 10 µM | 98.5% | 101% | 100% | 101% | 98% |  |  |  |  |  | 93.7% | 99.3% | 88.8% | 92.4% | 90.8% | 0 | > 10 µM | 105% | 98% | 103% | 101% | 107% |  |  |  |  |  |  | 
14 | CNc1nc(NCc2ccc(NS(C)(=O)=O)cc2Cl)cc(-c2ccccn2)n1 [TC-G-1008] | 0.6 | 0.9 | 0.9 | > 10 µM | > 10 µM | > 10 µM | 100% | 108% | 101% | 100% | 79% | 105% | 113% | 98.2% | 90% | 83.7% | 93.1% | 105% | 90.4% | 95.1% | 78.5% | 2.4 |  | 93.9% | 91.2% | 106% | 99.4% | 54.8% | 0.4 | > 10 µM | 105% | 106% | 98.3% | 101% | 81.5%
15 | NC(=O)c1nc(Nc2ccccc2)sc1NC(=O)C1CCCCC1 [UNC3230] | 0 | 5.6 | 1.9 | > 10 µM |  | > 10 µM | 102% | 96.9% | 97.5% | 93.8% | 88.8% | 86.3% | 84.9% | 90.8% | 79% | 69.7% | 98.6% | 97.8% | 98% | 89.2% | 75.1% | 0 | > 10 µM | 96.6% | 104% | 88.1% | 104% | 88.5% | 1.4 |  | 99.1% | 92.6% | 98.1% | 99% | 70.8%
16 | O=c1ncn2nc(Sc3ccc(F)cc3F)ccc2c1-c1c(Cl)cccc1Cl [VX-745] | 0.1 | 2.1 | 0.4 | > 10 µM | > 10 µM | > 10 µM | 102% | 108% | 98.4% | 94.9% | 87.9% | 97.1% | 107% | 98.7% | 82.9% | 95% | 107% | 96.5% | 104% | 99.7% | 82.6% |  |  |  |  |  |  |  | 1.4 | > 10 µM | 106% | 105% | 95.8% | 86.1% | 86.1%
17 | CCOc1ccc2nc(SCCN3CCOCC3)[nH]c2c1 [afobazole] |  | 0 | 0 |  | > 10 µM | > 10 µM |  |  |  |  |  | 95.5% | 97.8% | 84.4% | 101% | 99.8% | 102% | 110% | 104% | 99.5% | 102% | 0 | > 10 µM | 112% | 101% | 107% | 99.5% | 103% |  |  |  |  |  |  | 
